Experimental data reported in patent US8222229B2, “Peritoneal dialysis method” (Kowa Co., Ltd., priority 2002, dated 2012).

System: HPMC (human peritoneal mesothelial cells)
Assay: HPMC viability under high level glucose, cell counting (WST-1)
Format: cell-based
Settings: for effect on decrease in the viability of HPMC attributed to glucose (as measured by absorbance): preincubation 3 h with 0, 10, 100, 1,000 μM test substance, then 8 h in glucose 5.8 mM, 75 mM, 140 mM, WST-1
Procedure: Peritoneal mesothelial cells (HPMC) were preincubated for three hours in culture media (M199) containing ATP (0, 10, 100, and 1,000 μM). The cells were washed with an HPMC culture medium (saline buffer) and then incubated for eight hours in culture media (M199) containing glucose at three different levels (5.8 mM, 75 mM, and 140 mM). HPMC viability was obtained through cell counting (WST-1).
Instead of ATP, adenosine, which is a metabolite of ATP, was employed to study the effect of adenosine on decrease in HPMC viability caused by high level glucose.
Prior to the step of preincubation with ATP-containing culture media in the procedure of Example 1, HPMC were preincubated for 30 minutes with each of the following selective ATP receptor antagonists: (1) Suramin (P2X, P2Y receptor antagonist; 10 μM), (2) Reactive Blue 2 (P2Y receptor antagonist; 30 μM), and (3) PPADS (P2X receptor antagonist; 10 μM). Thereafter, the test was performed as described in Example 1.

SMILES | ATP's effect on decrease in the viability of HPMC attributed to glucose after ATP receptor antagonist pretreatment (HPMC preincubated 30 min with Suramin 10 μM, Reactive Blue 2 30 μM or PPADS 10 μM before ATP preincubation, glucose 5.8, 75, 140 mM) | effect on decrease in the viability of HPMC attributed to glucose (as measured by absorbance)
Nc1ncnc2c1ncn2[C@@H]1O[C@H](COP(=O)(O)OP(=O)(O)OP(=O)(O)O)[C@@H](O)[C@H]1O [ATP, adenosine triphosphate] | no effect of alleviating reduction in HPMC viability | decrease in viability caused by high level glucose was significantly alleviated
Nc1ncnc2c1ncn2[C@@H]1O[C@H](CO)[C@@H](O)[C@H]1O [Adenosine, adenosine, reference compound] | – | no effect of alleviating decrease in HPMC viability
